Assay results published in patent publication US20110207722A1, “TREATMENT OF ANXIETY DISORDERS” (N[…]/S, priority 2008, published 2011).

System: Mice
Experiment: Marble burying test
Type: in vivo, mouse
Settings: Compound I 0.05 mg/kg orally 60 min before testing; diazepam 0.03-0.3 mg/kg i.p. 30 min before testing; 30 min test session; n=8
Method: FIGS. 1 and 2 show the effect of the compound exo-7-(8-H-8-aza-bicyclo[3.2.1]oct-3-yloxy)-chromen-2-one (Compound I or Cp I) and diazepam, respectively, in the mouse marble burying test. Compound I (0.05-0.2 mg/kg) was administered orally 60 min before testing. Diazepam (0.1-1 mg/kg) was injected via the intraperitoneal (i.p.) route 30 min before testing. *P<0.05, ***P<0.001 vs. vehicle-treated group (Student's t-test, n=8).
Compound I (0.05 mg/kg) was administered orally 60 min before testing. Diazepam (0.03-0.3 mg/kg) was injected via the intraperitoneal (i.p.) route 30 min before testing. Paroxetine (10 mg/kg, i.p., −30 min) served as a positive control. *P<0.05, **P<0.01 vs. vehicle-treated group (Student's t-test, n=8).
Mice were placed for 30 min in novel cages (one mouse per cage, 20×30 cm) in which there were 20 glass marbles (15 mm in diameter) situated in four rows of five placed on top of 5 cm of sawdust. […]

In the case of `O=c1ccc2ccc(O[C@@H]3C[C@H]4CC[C@@H](C3)N4)cc2o1` [Compound I, exo-7-(8-H-8-aza-bicyclo[3.2.1]oct-3-yloxy)-chromen-2-one], the “effect on the activity of diazepam in the mouse marble burying test (number of glass marbles buried)” value is reported as “augments the activity of diazepam”.
